Values of other authors in PubChem BioAssay AID1259409 (Chemical Carcinogenesis Research Information System (CCRIS), 2018).
Several values for one entry are separate records, joined by “and”; a condition that tells them apart may be missing. Identical values can stand only once.

Tested on: rodent chemically induced tumor inhibition, incidence and multiplicity
Experiment: CCRIS tumor inhibitor studies

CCN(CC)C(=S)S
outcome (Carcinogen: DIETHYLNITROSAMINE, 55-18-5, Dose [Inhibitor]: 0, 50 MG/KG 1/WK FOR 5 WK ADMINISTERED 4 HR POST EACH CARCINOGEN DOSE (STUDY DURATION: 6 MO), Route [Inhibitor]: INTRAPERITONEAL, Species: RAT, Strain/Sex: BD6/FEMALE, Target Tissue: Type of Lesion: ESOPHAGUS: TUMOR, Dose [Carcinogen]: 80 MG/KG BW 1/WK FOR 5 WK, Promoter: NONE USED): 6%, 77, -1183%, p<0.001 | tumour outcome (control, treated, inhibition, significance) (Carcinogen: DIETHYLNITROSAMINE, 55-18-5, Dose [Inhibitor]: 0, 50 MG/KG 1/WK FOR 5 WK ADMINISTERED 4 HR POST EACH CARCINOGEN DOSE (STUDY DURATION: 6 MO), Route [Inhibitor]: INTRAPERITONEAL, Species: RAT, Strain/Sex: BD6/FEMALE, Target Tissue: Type of Lesion: LIVER: TUMOR, Dose [Carcinogen]: 80 MG/KG BW 1/WK FOR 5 WK, Promoter: NONE USED): 44%, 77%, -75%, not significant | tumour outcome (control, treated, inhibition, significance) (Carcinogen: DIETHYLNITROSAMINE, 55-18-5, Dose [Inhibitor]: 0, 50 MG/KG 1/WK FOR 5 WK ADMINISTERED 4 HR POST EACH CARCINOGEN TREATMENT (STUDY DURATION: 6 MO), Route [Inhibitor]: INTRAPERITONEAL, Species: RAT, Strain/Sex: BD6/FEMALE, Target Tissue: Type of Lesion: ESOPHAGUS: TUMOR, Dose [Carcinogen]: 80 MG/KG BW 1/WK FOR 5 WK, Promoter: NONE USED): 14%, 94%, -571%, p<0.001 | tumour outcome (control, treated, inhibition, significance) (Carcinogen: DIETHYLNITROSAMINE, 55-18-5, Dose [Inhibitor]: 0, 50 MG/KG 1/WK FOR 5 WK ADMINISTERED 4 HR POST EACH CARCINOGEN TREATMENT (STUDY DURATION: 6 MO), Route [Inhibitor]: INTRAPERITONEAL, Species: RAT, Strain/Sex: BD6/FEMALE, Target Tissue: Type of Lesion: LIVER: TUMOR, Dose [Carcinogen]: 80 MG/KG BW 1/WK FOR 5 WK, Promoter: NONE USED): 52%, 44%, 15%, not significant | tumour outcome (control, treated, inhibition, significance) (Carcinogen: DIETHYLNITROSAMINE, 55-18-5, Dose [Inhibitor]: 0, 50 MG/KG 1/WK FOR 5 WK ADMINISTERED 24 HR POST EACH CARCINOGEN TREATMENT (STUDY DURATION: 6 MO), Route [Inhibitor]: INTRAPERITONEAL, Species: RAT, Strain/Sex: BD6/FEMALE, Target Tissue: Type of Lesion: LIVER: TUMOR, Dose [Carcinogen]: 80 MG/KG BW 1/WK FOR 5 WK, Promoter: NONE USED): 52%, 32%, 38%, not significant | tumour outcome (control, treated, inhibition, significance) (Carcinogen: DIETHYLNITROSAMINE, 55-18-5, Dose [Inhibitor]: 0, 50 MG/KG 1/WK FOR 5 WK ADMINISTERED 24 HR POST EACH CARCINOGEN TREATMENT(STUDY DURATION: 6 MO), Route [Inhibitor]: INTRAPERITONEAL, Species: RAT, Strain/Sex: BD6/FEMALE, Target Tissue: Type of Lesion: ESOPHAGUS: TUMOR, Dose [Carcinogen]: 80 MG/KG BW 1/WK FOR 5 WK, Promoter: NONE USED): 14%, 4%, 71%, not significant

CC1(C)OC(=O)C=C[C@]2(C)[C@H]3CC[C@@]4(C)[C@H](c5ccoc5)OC(=O)[C@H]5O[C@]54[C@]3(C)C(=O)C[C@@H]12
tumour outcome (control, treated, inhibition, significance) (Carcinogen: AZOXYMETHANE, 25843-45-2, Dose [Inhibitor]: 0, 0.05% IN DIET FOR 35 WK BEGINNING 1 WK POST CARCINOGEN LAST DOSE (STUDY DURATION: 38 WK), Route [Inhibitor]: ORAL, Species: RAT, Strain/Sex: F344/MALE, Target Tissue: Type of Lesion: COLON: ADENOCARCINOMA, Dose [Carcinogen]: 20 MG/KG BW 1/WK FOR 2 WK): 18/25 (72%), 2/16 (13%), 82%, p=0.0002 and 18/25 (72%), 4/16 (25%), 65%, p=0.004

O=P(O)(O)O
tumour outcome (control, treated, inhibition, significance) (Carcinogen: N-ETHYL-N-HYDROXYETHYLNITROSAMINE, 13147-25-6, Dose [Inhibitor]: 0, 10% IN DIET OF UNILATERALLY NEPHRECTOMIZED RATS BEGINNING POST CARCINOGEN TREATMENT AND CONTINUING FOR 18 WK (STUDY D, Route [Inhibitor]: ORAL, Species: RAT, Strain/Sex: WISTAR/MALE, Target Tissue: Type of Lesion: KIDNEY: RENAL CELL TUMOR, Dose [Carcinogen]: 1000 PPM IN DIET FOR 2 WK, Promoter: NONE USED): 5/20 (25%), 3/18 (17%), 32%, not calculated

CC(=O)NCCCCCCNC(C)=O
tumour outcome (control, treated, inhibition, significance) (Carcinogen: 7,12-DIMETHYLBENZ[A]ANTHRACENE, 57-97-6, Dose [Inhibitor]: 0, 1% IN DRINKING WATER FOR DURATION OF STUDY (STUDY DURATION: 13 WK), Route [Inhibitor]: ORAL, Species: HAMSTER, Strain/Sex: SYRIAN/MALE, Target Tissue: Type of Lesion: CHEEK POUCH: TUMOR, Dose [Carcinogen]: 0.5% IN ACETONE/HEAVY MINERAL OIL (1:20) 2/WK FOR 11 WK, Promoter: NONE USED): 13/13 (100%), 13/13 (100%), 0%, not significant | tumour outcome (control, treated, inhibition, significance) (Carcinogen: 7,12-DIMETHYLBENZ[A]ANTHRACENE, 57-97-6, Dose [Inhibitor]: 0, 500 MG/KG BW 3/WK FOR DURATION OF STUDY (STUDY DURATION: 13 WK), Route [Inhibitor]: INTRAPERITONEAL, Species: HAMSTER, Strain/Sex: SYRIAN/MALE, Target Tissue: Type of Lesion: CHEEK POUCH: TUMOR, Dose [Carcinogen]: 0.5% IN ACETONE/HEAVY MINERAL OIL (1:20) 2/WK FOR 11 WK, Promoter: NONE USED): 13/13 (100%), 13/13 (100%), 0%, not significant | tumour outcome (control, treated, inhibition, significance) (Carcinogen: N-METHYL-N-NITROSOUREA [684-93-5], Dose [Inhibitor]: 1000 PPM IN DIET FOR 19 WK BEGINNING 1 WK PRIOR TO FIRST CARCINOGEN DOSE (STUDY DURATION: 19 WK), Route [Inhibitor]: ORAL, Species: RAT, Strain/Sex: SPRAGUE-DAWLEY/FEMALE, Target Tissue: Type of Lesion: MAMMARY GLAND: TUMOR, Dose [Carcinogen]: 40 MG/KG BW ONCE (STUDY DURATION: 19 WK), Promoter: NONE): 18/20 (90%), 17/20 (85%), 6% not significant | tumour outcome (control, treated, inhibition, significance) (Carcinogen: N-METHYL-N-NITROSOUREA [684-93-5], Dose [Inhibitor]: 2000 PPM IN DIET FOR 19 WK BEGINNING 1 WK PRIOR TO FIRST CARCINOGEN DOSE (STUDY DURATION: 19 WK), Route [Inhibitor]: ORAL, Species: RAT, Strain/Sex: SPRAGUE-DAWLEY/FEMALE, Target Tissue: Type of Lesion: MAMMARY GLAND: TUMOR, Dose [Carcinogen]: 40 MG/KG BW ONCE (STUDY DURATION: 19 WK), Promoter: NONE): 18/20 (90%), 17/20 (85%), 6%, not significant

Cc1occc(=O)c1O
tumour outcome (control, treated, inhibition, significance) (Carcinogen: BENZO[A]PYRENE, 50-32-8, Dose [Inhibitor]: 0.034 MMOL/G IN DIET BEGINNING 1 WK PRIOR TO CARCINOGEN DOSE AND CONTINUING FOR 3 D POST LAST CARCINOGEN DOSE (STUDY DUR, Route [Inhibitor]: ORAL, Species: MOUSE, Strain/Sex: ICR/FEMALE, Target Tissue: Type of Lesion: FORESTOMACH: TUMOR, Dose [Carcinogen]: 1 MG IN 0.2 ML CORN OIL 2/WK FOR 4 WK, Promoter: NONE USED): 94%, 100%, -6%, not significant

Oc1ccc(O)cc1
tumour outcome (control, treated, inhibition, significance) (Carcinogen: BENZO[A]PYRENE, 50-32-8, Dose [Inhibitor]: 5 MG IN 0.1 ML ACETONE 3/WK ADMINISTERED SIMULTANEOUSLY WITH CARCINOGEN FOR DURATION OF STUDY (STUDY DURATION: 368 D), Route [Inhibitor]: DERMAL, Species: MOUSE, Strain/Sex: ICR/FEMALE, Target Tissue: Type of Lesion: SKIN: PAPILLOMA, Dose [Carcinogen]: 5 UG IN 0.1 ML ACETONE 3/WK FOR DURATION OF STUDY, Promoter: NONE USED): 14/50 (28%), 7/50 (14%), 50%, not calculated | tumour outcome (control, treated, inhibition, significance) (Carcinogen: BENZO[A]PYRENE, 50-32-8, Dose [Inhibitor]: 5 MG IN 0.1 ML ACETONE 3/WK ADMINISTERED SIMULTANEOUSLY WITH CARCINOGEN FOR DURATION OF STUDY (STUDY DURATION: 368 D), Route [Inhibitor]: DERMAL, Species: MOUSE, Strain/Sex: ICR/FEMALE, Target Tissue: Type of Lesion: SKIN: SQUAMOUS CARCINOMA, Dose [Carcinogen]: 5 UG IN 0.1 ML ACETONE 3/WK FOR DURATION OF STUDY, Promoter: NONE USED): 10/50 (20%), 3/50 (6%), 70%, not calculated | tumour outcome (control, treated, inhibition, significance) (Carcinogen: N-ETHYL-N-HYDROXYETHYLNITROSAMINE, 13147-25-6, Dose [Inhibitor]: 0, 0.8% IN DIET FOR 36 WK BEGINNING 1 WK POST CARCINOGEN TREATMENT (STUDY DURATION: 40 WK), Route [Inhibitor]: ORAL, Species: RAT, Strain/Sex: WISTAR/MALE, Target Tissue: Type of Lesion: LIVER: HEPATOCELLULAR ADENOMA, Dose [Carcinogen]: 0.1% IN DRINKING WATER FOR 3 WK, Promoter: NONE USED): 10/17 (59%), 11/18 (61%), -3%, not significant | tumour outcome (control, treated, inhibition, significance) (Carcinogen: N-ETHYL-N-HYDROXYETHYLNITROSAMINE, 13147-25-6, Dose [Inhibitor]: 0, 0.8% IN DIET FOR 36 WK BEGINNING 1 WK POST CARCINOGEN TREATMENT (STUDY DURATION: 40 WK), Route [Inhibitor]: ORAL, Species: RAT, Strain/Sex: WISTAR/MALE, Target Tissue: Type of Lesion: LIVER: HEPATOCELLULAR CARCINOMA, Dose [Carcinogen]: 0.1% IN DRINKING WATER FOR 3 WK, Promoter: NONE USED): 7/17 (41%), 3/18 (17%), 56%, not significant
